Reference: paper PMC7828518 (2021)

Tests used:
[1] = system: F10T (DNA, hairpin, Sp18 linker joins 3' end of first TATAGCTATA to 5' end of second (one molecule)) TATAGCTATA/TATAGCTATA; experiment: FRET DNA melting; conditions: Li+ (100 mM LiCl) per methods; Figure 3 legend: 10 mM KCl, 90 mM LiCl; 10 mM lithium cacodylate pH 7.3; up to 10 μM compound, 0.2 μM DNA
[2] = system: Tel22 (DNA, G4) AGGGTTAGGGTTAGGGTTAGGG; experiment: circular dichroism titration; conditions: K+ (10 mM KCl), Li+ (90 mM LiCl); 10 mM lithium cacodylate pH 7.3, 25 °C; 4 μM DNA, ratios 1:1 to 1:5
[3] = system: F21T (DNA, G4) GGGTTAGGGTTAGGGTTAGGG; experiment: FRET DNA melting; conditions: K+ (10 mM KCl), Li+ (90 mM LiCl); 10 mM lithium cacodylate pH 7.3; 5 μM compound, 0.2 μM DNA
[4] = system: ds17 (DNA, duplex) GGGTTACTACGAACTGG/CCAGTTCGTAGTAACCC; experiment: equilibrium dialysis (noncompetition); conditions: K+ (100 mM KCl, 10 mM potassium phosphate), pH 7.2, 22 °C, apparent, per base pair (75 μM monomeric units), 2 μM compound
[5] = system: Tel22 (DNA, G4) AGGGTTAGGGTTAGGGTTAGGG; experiment: equilibrium dialysis (noncompetition); conditions: K+ (100 mM KCl, 10 mM potassium phosphate); pH 7.2, 22 °C; apparent; per tetrad (75 μM monomeric units); 2 μM compound; per base

∆Tm [1]: ~ 0 °C
binding [2]: yes
∆Tm [3]: 7 ± 1 °C
Kapp [4]: 0.029 ± 0.004 × 10^6 M^-1
Kapp [5]: 2.3 ± 0.5 × 10^6 M^-1
SMILES: N=C(N)N/N=C/c1ccc2ccc3ccc(/C=N/NC(=N)N)nc3c2n1
